Results as given in patent EP0381533A2, “Cyclic monophosphates of purine and pyrimidine acyclonucleosides” (Merck & Co., Inc., priority 1989, dated 1990).

Test system: Eisenhart Human Cytomegalovirus
Test: Human Cytomegalovirus (HCMV) Plaque Reduction Assay
Format: cell-based
Settings: MRC-5 cells (human fetal lung); ~60 PFUs; plaques counted on day 6 post inoculation
Protocol: Activity against Human Cytomegalovirus is determined by employing the Human Cytomegalovirus (HCMV) Assay. Two tissue culture assays are available; Cell Protection and Plaque Reduction. Both assays utilize MRC-5 cells (human fetal lung) and Eisenhart Human Cytomegalovirus. The following is a description of the Cell Protection and Plaque Reduction Assays.
Eight-two fold dilutions are made of the compound to be tested. After the dilutions are made, 0.5 ml of each dilution is added to each of three decanted wells of MRC-5. Two wells are used to determine the antiviral activity of the compound to be tested and one well is used to determine toxicity. The MRC-5 plates are then decanted, and the wells are infected with 0.1 ml of Human Cytomegalovirus inoculum containing ∼60 PFUs. The plates are then adsorbed for 1 hour at 37°C/5% CO₂. After one hour the virus is removed from the wells and duplicate wells are refed with dilutions of the compound to be tested. The plates are then incubated at 37°C/5% CO₂. Plaques are counted microscopically on day 6 post inoculation.

SMILES | Plag Red
Nc1nc2c(ncn2COC(CO)CO)c(=O)[nH]1 [2-amino-1,9-dihydro-9-((2-hydroxy-1-(hydroxymethyl)-ethoxy)methyl)-6H-Purin-6-one] | 0.78 µg/mL
Nc1ccn(COC2COP(=O)(O)OC2)c(=O)n1 (stereo not drawn) [Sodium 1-[(2-hydroxy-1,3,2-dioxophosphorinan-5-yl)-oxymethyl]cytosine P-oxide] | 25.00 µg/mL
Nc1nc2c(ncn2COC2COP(=O)(O)OC2)c(=O)[nH]1 (stereo not drawn) [Sodium 9-[(2-hydroxy-1,3,2-dioxophosphorinan-5-yl)-oxymethyl]guanine P-oxide] | 0.19 µg/mL
